From article PMC9297976 (Journal of Applied Toxicology, 2021)

How the values were obtained:
[1] = molecular target: T1, medaka Esr1 (mEsr1) (Oryzias latipes, UniProt P50241); experiment: Medaka Esr1 reporter gene assay, antagonist assay; format: cell-based, Japanese medaka (Oryzias latipes); details: MAC = 1.0 × 10^−5 M
T1 sequence (P50241 1-620): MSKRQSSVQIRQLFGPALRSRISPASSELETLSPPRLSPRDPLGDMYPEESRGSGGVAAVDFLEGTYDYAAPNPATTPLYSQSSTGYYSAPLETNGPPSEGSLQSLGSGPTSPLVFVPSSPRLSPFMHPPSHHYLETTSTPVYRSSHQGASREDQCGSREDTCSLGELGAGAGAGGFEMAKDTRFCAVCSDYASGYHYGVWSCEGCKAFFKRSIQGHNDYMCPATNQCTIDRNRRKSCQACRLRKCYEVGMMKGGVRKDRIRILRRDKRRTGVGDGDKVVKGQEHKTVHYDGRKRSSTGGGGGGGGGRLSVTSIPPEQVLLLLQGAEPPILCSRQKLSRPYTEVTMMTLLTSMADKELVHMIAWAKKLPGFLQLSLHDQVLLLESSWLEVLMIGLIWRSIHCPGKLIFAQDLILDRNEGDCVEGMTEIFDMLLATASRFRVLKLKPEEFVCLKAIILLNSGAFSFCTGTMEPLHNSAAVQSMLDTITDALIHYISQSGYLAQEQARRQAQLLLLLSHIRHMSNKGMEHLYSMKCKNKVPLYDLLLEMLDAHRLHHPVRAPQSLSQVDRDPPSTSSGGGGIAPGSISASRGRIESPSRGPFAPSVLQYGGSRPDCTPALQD

[2] = molecular target: T2, medaka ARβ (mArβ) (Oryzias latipes, UniProt D1MV73); experiment: Medaka ARβ reporter gene assay, antagonist assay; format: cell-based, Japanese medaka (Oryzias latipes); details: 11‐KT spiked at 50 nM (D); MAC = 1.0 × 10^−5 M
T2 sequence (D1MV73 1-744): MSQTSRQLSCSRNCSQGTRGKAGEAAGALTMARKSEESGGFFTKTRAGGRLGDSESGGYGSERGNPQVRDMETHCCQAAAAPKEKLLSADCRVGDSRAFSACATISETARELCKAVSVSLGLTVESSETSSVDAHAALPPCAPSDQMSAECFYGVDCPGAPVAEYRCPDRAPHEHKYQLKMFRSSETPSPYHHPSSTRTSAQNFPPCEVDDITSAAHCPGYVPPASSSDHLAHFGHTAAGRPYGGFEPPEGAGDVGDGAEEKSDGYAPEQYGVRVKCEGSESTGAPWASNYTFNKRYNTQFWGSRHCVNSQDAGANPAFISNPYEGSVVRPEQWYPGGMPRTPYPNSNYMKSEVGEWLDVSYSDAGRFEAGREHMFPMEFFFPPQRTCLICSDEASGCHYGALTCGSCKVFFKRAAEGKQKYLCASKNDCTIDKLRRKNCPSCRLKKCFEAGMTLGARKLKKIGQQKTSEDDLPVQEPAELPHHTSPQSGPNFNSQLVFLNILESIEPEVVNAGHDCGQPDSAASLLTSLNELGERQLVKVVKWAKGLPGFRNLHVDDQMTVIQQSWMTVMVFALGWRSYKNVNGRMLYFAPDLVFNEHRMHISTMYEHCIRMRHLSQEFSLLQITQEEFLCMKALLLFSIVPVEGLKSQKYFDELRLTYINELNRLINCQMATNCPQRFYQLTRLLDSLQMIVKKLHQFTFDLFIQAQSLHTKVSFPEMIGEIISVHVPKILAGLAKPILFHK

[3] = molecular target: T1, medaka Esr1 (mEsr1); experiment: cell-based; set-up: species or system Japanese medaka (Oryzias latipes); details: for In vitro positive: Esr: mode of action in which EC50 or PC10 was obtained in RGA
[4] = molecular target: T2, medaka ARβ (mArβ); experiment: Medaka ARβ reporter gene assay, agonist assay; format: cell-based, Japanese medaka (Oryzias latipes); details: MAC = 1.0 × 10^−5 M
[5] = test system: Japanese medaka (Oryzias latipes); experiment: Fish Short‐Term Reproduction Assay; format: in vivo; details: for Fertility rate / Hepatic VTG, female / Hepatic VTG, male / Mortality / Mortality, number of dead fish / Number of fertilized eggs (per female per day) / Number of total eggs (per female per day) / SSC female (joint plates with papillary processes) / SSC male (joint plates with papillary processes): 21 d; for LOECREPRO: LOEC on reproduction (fecundity and/or fertility); for minimal effective concentration: Oryzias latipes, 504 h, read-out: LOECmVTG; for LOECTOX: lowest observed effect concentration on mortality; for GSI Female / GSI Male / HSI Female / HSI Male / Length Female / Length Male / Weight Female / Weight Male: completion of exposure
[6] = measured concentration 184 μg/L
[7] = measured concentration 836 μg/L
[8] = measured concentration 0.0619 μg/L
[9] = measured concentration 0.294 μg/L
[10] = measured concentration 1.30 μg/L

CC(C)COC(=O)c1ccccc1C(=O)OCC(C)C [DIBP, Diisobutyl phthalate]
Antagonistic activity ([1]; E2 spiked at 1.0 nM (B)): NE (MAC = 1.0 × 10^−5 M)^(B)
Antagonistic activity [2]: NE (MAC = 1.0 × 10^−5 M)^(D)
Agonistic activity PC10 [3]: PC10 = 3.0 × 10^−6 M
In vitro positive: Esr [3]: Esr
Agonistic activity [4]: NE (MAC = 1.0 × 10^−5 M)
Fertility rate ([5]; 35 μg/L measured): 97 ± 4.8%
Hepatic VTG, female ([5]; 35 μg/L measured): 596 ± 144 ng/mg‐liver
Hepatic VTG, male ([5]; 35 μg/L measured): 0.3 ± 0.4 ng/mg‐liver
Mortality ([5]; 35 μg/L measured): 0.0%
Mortality, number of dead fish ([5]; 35 μg/L measured): 0
Number of fertilized eggs (per female per day) ([5]; 35 μg/L measured): 23 ± 6.6
Number of total eggs (per female per day) ([5]; 35 μg/L measured): 24 ± 7.0
SSC female (joint plates with papillary processes) ([5]; 35 μg/L measured): 0 ± 0
SSC male (joint plates with papillary processes) ([5]; 35 μg/L measured): 96 ± 11
Fertility rate ([5]; 184 μg/L measured): 97 ± 3.9%
Hepatic VTG, male ([5]; 184 μg/L measured): 0.2 ± 0.1 ng/mg‐liver
Mortality ([5]; 184 μg/L measured): 0.0%
Mortality, number of dead fish ([5]; 184 μg/L measured): 0
Number of fertilized eggs (per female per day) ([5]; 184 μg/L measured): 23 ± 6.9
Number of total eggs (per female per day) ([5]; 184 μg/L measured): 24 ± 7.2
SSC female (joint plates with papillary processes) ([5]; 184 μg/L measured): 0 ± 0
SSC male (joint plates with papillary processes) ([5]; 184 μg/L measured): 96 ± 10
Hepatic VTG, female ([5]; 184 μg/L measured, sig. ↓ vs control): 404 ± 85 ng/mg‐liver
Fertility rate ([5]; 836 μg/L measured): 96 ± 5.4%
Hepatic VTG, male ([5]; 836 μg/L measured): 2.2 ± 3.2 ng/mg‐liver
Mortality ([5]; 836 μg/L measured): 0.0%
Mortality, number of dead fish ([5]; 836 μg/L measured): 0
Number of fertilized eggs (per female per day) ([5]; 836 μg/L measured): 24 ± 5.9
Number of total eggs (per female per day) ([5]; 836 μg/L measured): 25 ± 5.8
SSC female (joint plates with papillary processes) ([5]; 836 μg/L measured): 0 ± 0
SSC male (joint plates with papillary processes) ([5]; 836 μg/L measured): 97 ± 18
Hepatic VTG, female ([5]; 836 μg/L measured, sig. ↓ vs control): 421 ± 73 ng/mg‐liver
LOECREPRO [5]: ND (>836) μg/L
minimal effective concentration [5]: > 0.836 µg/mL
LOECTOX [5]: ND (>836) μg/L
GSI Female ([5]; measured concentration 35 μg/L): 13.3 ± 2.3%
GSI Male ([5]; measured concentration 35 μg/L): 1.2 ± 0.2%
HSI Female ([5]; measured concentration 35 μg/L): 6.3 ± 1.60%
HSI Male ([5]; measured concentration 35 μg/L): 2.7 ± 0.40%
Length Female ([5]; measured concentration 35 μg/L): 33.6 ± 1.5 mm
Length Male ([5]; measured concentration 35 μg/L): 31.9 ± 1.2 mm
Weight Female ([5]; measured concentration 35 μg/L): 446 ± 48 mg
Weight Male ([5]; measured concentration 35 μg/L): 335 ± 39 mg
GSI Female [5, 6]: 13.6 ± 1.9%
GSI Male [5, 6]: 1.0 ± 0.3%
HSI Female [5, 6]: 6.3 ± 0.90%
HSI Male [5, 6]: 3.1 ± 0.40%
Length Female [5, 6]: 32.6 ± 1.5 mm
Length Male [5, 6]: 31.8 ± 1.4 mm
Weight Female [5, 6]: 405 ± 52 mg
Weight Male [5, 6]: 329 ± 55 mg
GSI Female [5, 7]: 12.0 ± 2.0%
GSI Male [5, 7]: 1.2 ± 0.4%
HSI Female [5, 7]: 5.9 ± 1.30%
HSI Male [5, 7]: 3.4 ± 0.40%
Length Female [5, 7]: 32.6 ± 1.4 mm
Length Male [5, 7]: 32.4 ± 1.7 mm
Weight Female [5, 7]: 413 ± 61 mg
Weight Male [5, 7]: 348 ± 62 mg

CC(C)C(C(=O)OC(C#N)c1cccc(Oc2ccccc2)c1)c1ccc(Cl)cc1 (stereo not shown) [FV, Fenvalerate]
Antagonistic activity ([1]; E2 spiked at 0.2 nM (A)): NE (MAC = 1.0 × 10^−5 M) ^(A)
Antagonistic activity [2]: NE (MAC = 1.0 × 10^−5 M)^(D)
EC50 [3]: 2400 nM
In vitro positive: Esr [3]: Esr
Agonistic activity [4]: NE (MAC = 1.0 × 10^−5 M)
Fertility rate ([5]; 0.0619 μg/L measured): 92 ± 3.2%
Hepatic VTG, female ([5]; 0.0619 μg/L measured): 390 ± 68 ng/mg‐liver
Hepatic VTG, male ([5]; 0.0619 μg/L measured): 0.5 ± 0.0 ng/mg‐liver
Mortality ([5]; 0.0619 μg/L measured): 0.0%
Mortality, number of dead fish ([5]; 0.0619 μg/L measured): 0
Number of fertilized eggs (per female per day) ([5]; 0.0619 μg/L measured): 18 ± 2.7
Number of total eggs (per female per day) ([5]; 0.0619 μg/L measured): 19 ± 3.6
SSC female (joint plates with papillary processes) ([5]; 0.0619 μg/L measured): 0 ± 0
SSC male (joint plates with papillary processes) ([5]; 0.0619 μg/L measured): 80 ± 5.6
Fertility rate ([5]; 0.294 μg/L measured): 93 ± 4.3%
Hepatic VTG, female ([5]; 0.294 μg/L measured): 370 ± 212 ng/mg‐liver
Hepatic VTG, male ([5]; 0.294 μg/L measured): 0.5 ± 0.0 ng/mg‐liver
Mortality ([5]; 0.294 μg/L measured): 0.0%
Mortality, number of dead fish ([5]; 0.294 μg/L measured): 0
Number of fertilized eggs (per female per day) ([5]; 0.294 μg/L measured): 20 ± 3.5
Number of total eggs (per female per day) ([5]; 0.294 μg/L measured): 21 ± 3.1
SSC female (joint plates with papillary processes) ([5]; 0.294 μg/L measured): 0 ± 0
SSC male (joint plates with papillary processes) ([5]; 0.294 μg/L measured): 88 ± 7.2
Fertility rate ([5]; 1.30 μg/L measured): 94 ± 2.8%
Hepatic VTG, female ([5]; 1.30 μg/L measured): 237 ± 152 ng/mg‐liver
Hepatic VTG, male ([5]; 1.30 μg/L measured): 0.9 ± 0.4 ng/mg‐liver
Mortality ([5]; 1.30 μg/L measured): 0.0%
Mortality, number of dead fish ([5]; 1.30 μg/L measured): 0
Number of fertilized eggs (per female per day) ([5]; 1.30 μg/L measured): 23 ± 1.7
Number of total eggs (per female per day) ([5]; 1.30 μg/L measured): 24 ± 1.8
SSC female (joint plates with papillary processes) ([5]; 1.30 μg/L measured): 0 ± 0
SSC male (joint plates with papillary processes) ([5]; 1.30 μg/L measured): 83 ± 4.8
LOECREPRO [5]: ND (>1.30) μg/L
minimal effective concentration [5]: > 0.0013 µg/mL
LOECTOX [5]: ND (>1.3) μg/L
GSI Female [5, 8]: 9.9 ± 0.7%
GSI Male [5, 8]: 0.75 ± 0.07%
HSI Female [5, 8]: 4.3 ± 0.70%
HSI Male [5, 8]: 2.7 ± 0.30%
Length Female [5, 8]: 33.5 ± 1.1 mm
Length Male [5, 8]: 33.8 ± 1.4 mm
Weight Female [5, 8]: 454 ± 36 mg
Weight Male [5, 8]: 418 ± 51 mg
GSI Female [5, 9]: 9.7 ± 0.5%
GSI Male [5, 9]: 0.67 ± 0.11%
HSI Female [5, 9]: 4.7 ± 0.40%
HSI Male [5, 9]: 2.3 ± 0.50%
Length Female [5, 9]: 34.4 ± 0.9 mm
Length Male [5, 9]: 34.0 ± 0.2 mm
Weight Female [5, 9]: 484 ± 33 mg
Weight Male [5, 9]: 422 ± 22 mg
GSI Female [5, 10]: 10.0 ± 0.1%
GSI Male [5, 10]: 0.72 ± 0.10%
HSI Female [5, 10]: 4.4 ± 0.80%
HSI Male [5, 10]: 2.5 ± 0.20%
Length Female [5, 10]: 34.1 ± 0.5 mm
Length Male [5, 10]: 33.9 ± 1.9 mm
Weight Female [5, 10]: 491 ± 33 mg
Weight Male [5, 10]: 416 ± 56 mg
